Results taken from patent US20230381129A1, “PERMETRIN FOR USE IN THE TREATMENT OF DEMODEX SPP INFESTATION” (priority 2020, published 2023).
Structures can show the parent of a compound that is named as a salt.

Assays:
Demodex mites = assay: In vitro survival study of Demodex mites on a glass slide without a coverslip; parameters: species or system Demodex spp.
Protocol: At least ten eyelashes from the upper and lower eyelids of both eyes were randomly collected from all subjects from the subsequent groups. The collected material was assessed in a UB-203i light microscope with a five-point revolver bowl and a vision track with a magnification of 4×, 10×, 20×, 40× and 100×, archiving the results with a digital camera type Toupcam TP 601300A from Touptek Photonics installed in the device.
In the case of the presence of Demodex mites, several dozen different chemical compounds in various concentrations with a potential demodicidal effect were used on the glass slide without the use of a coverslip. […] The in vitro test results for permethrin and fluralaner were archived using a Toupcam TP 601300A digital camera from Touptek Photonics mounted on the device.

Demodex spp. infestation = assay: Topical use of shampoo or shower gel in a person with inflammation and redness; type: in vivo, humans; details: shampoo or shower gel containing 0.75% active, 3 times a week for 2 months, human
Text: A shampoo or shower gel containing 0.75% permethrin is used 3 times a week for a period of 2 months.
Shampoo or shower gel containing 0.75% fluralaner is used 3 times a week for a period of 2 months.
A shampoo or shower gel containing 0.5% fluralaner and 0.5% permethrin is used 3 times a week for a period of 2 months.

## NCC[C@H](O)C(=O)N[C@@H]1C[C@H](N)[C@@H](O[C@H]2O[C@H](CN)[C@@H](O)[C@H](O)[C@H]2O)[C@H](O)[C@H]1O[C@H]1O[C@H](CO)[C@@H](O)[C@H](N)[C@H]1O [Amikacin]
Demodex mites; concentration 0.30%
  Time of Survival of Demodex mites: more than 15 minutes

## CN1[C@@H]2CC[C@H]1CC(OC(=O)C(CO)c1ccccc1)C2.CN1[C@@H]2CC[C@H]1CC(OC(=O)C(CO)c1ccccc1)C2.O=S(=O)(O)O (stereo partly drawn) [Atropinum sulfuricum]
Demodex mites; concentration 1%
  Time of Survival of Demodex mites: more than 15 minutes

## O=C(O)c1cn(C2CC2)c2cc(N3CCNCC3)c(F)cc2c1=O [Ciprofloxacin]
Demodex mites; concentration 0.30%
  Time of Survival of Demodex mites: more than 15 minutes

## CC=CC(=O)N(CC)c1ccccc1C [Crotamiton]
Demodex mites; concentration 10%
  Time of Survival of Demodex mites: more than 15 minutes

## CN(C)CCOC(=O)C(c1ccccc1)C1(O)CCCC1 (stereo not drawn) [Cyclopentolat]
Demodex mites; concentration 1%
  Time of Survival of Demodex mites: more than 15 minutes

## CCO [Ethanol]
Demodex mites; concentration 98%
  Time of Survival of Demodex mites: more than 15 minutes

## Cc1cc(C2=NOC(c3cc(Cl)cc(Cl)c3)(C(F)(F)F)C2)ccc1C(=O)NCC(=O)NCC(F)(F)F (stereo not drawn) [Fluralaner, 4-[(5R5)-5-(3,5-dichlorophenyl)-4,5-dihydro-5-(trifluoromethyl)-1,2-oxazol-3-yl]-N-[2-oxo-2-(2,2,2-trifluoroethylamino)ethyl]-o-toluamide]
Demodex mites; concentration 10%
  Time of Survival of Demodex mites: 6 min
Demodex spp. infestation
  Eyelid margin inflammation and eye symptoms (burning, itching, dry eyes, scales and deposits) after treatment: reduction in inflammation of the eyelid margins
  Skin inflammation symptoms and redness after treatment: visible improvement

## OO [Hydrogen peroxide (hydrogen peroxide), Hydrogen peroxide]
Demodex mites; concentration 3%
  Time of Survival of Demodex mites: more than 15 minutes

## C[C@H]1COc2c(N3CCN(C)CC3)c(F)cc3c(=O)c(C(=O)O)cn1c23 [Levofloxacin]
Demodex mites; concentration 0.50%
  Time of Survival of Demodex mites: more than 15 minutes

## N=C(NCCCCCCNC(=N)NC(=N)Nc1ccc(Cl)cc1)NC(=N)Nc1ccc(Cl)cc1.O=C(O)[C@H](O)[C@@H](O)[C@H](O)[C@H](O)CO.O=C(O)[C@H](O)[C@@H](O)[C@H](O)[C@H](O)CO [Manusan (chlorhexidine digluconate), chlorhexidine digluconate]
Demodex mites; concentration 4%
  Time of Survival of Demodex mites: more than 15 minutes

## O=C(OCc1ccccc1)c1ccccc1 [Novosscabin (benzyl benzoate), benzyl benzoate]
Demodex mites; concentration 30%
  Time of Survival of Demodex mites: more than 15 minutes

## CC1COc2c(N3CCN(C)CC3)c(F)cc3c(=O)c(C(=O)O)cn1c23 (stereo not drawn) [Ofloxacin]
Demodex mites; concentration 0.30%
  Time of Survival of Demodex mites: more than 15 minutes

## CC1(C)C(C=C(Cl)Cl)C1C(=O)OCc1cccc(Oc2ccccc2)c1 (stereo not drawn) [Permethrin]
Demodex mites; concentration 10%
  Time of Survival of Demodex mites: 5 min
Demodex spp. infestation
  Eyelid margin inflammation and eye symptoms (burning, itching, dry eyes, scales and deposits) after treatment: reduction in inflammation of the eyelid margins
  Skin inflammation symptoms and redness after treatment: visible improvement

## CNC[C@H](O)c1cccc(O)c1.Cl [Phenylephrini hydrochloridum]
Demodex mites; concentration 10%
  Time of Survival of Demodex mites: more than 15 minutes

## CC[C@@H]1C(=O)OC[C@@H]1Cc1cncn1C.Cl [Pilocarpinum hydrochloridum]
Demodex mites; concentration 2%
  Time of Survival of Demodex mites: more than 15 minutes

## CN(C)C(=O)Oc1cccc([N+](C)(C)C)c1 [Polstigmine (neostigmine methyl sulfate), neostigmine methyl sulfate]
Demodex mites; concentration 0.05%
  Time of Survival of Demodex mites: more than 15 minutes

## NC[C@H]1O[C@H](O[C@H]2[C@H](O)[C@@H](O[C@H]3O[C@H](CO)[C@@H](O)[C@H](N)[C@H]3O)[C@H](N)C[C@@H]2N)[C@H](N)C[C@@H]1O [Tobramycin]
Demodex mites; concentration 0.30%
  Time of Survival of Demodex mites: more than 15 minutes

## NC(N)=O [Urea]
Demodex mites; concentration 20%
  Time of Survival of Demodex mites: more than 15 minutes

## Gentamicin
Demodex mites; concentration 0.30%
  Time of Survival of Demodex mites: more than 15 minutes

## Ivermectin
Demodex mites; concentration 1%
  Time of Survival of Demodex mites: more than 15 minutes
